Reference: patent US10894784B2, “Heteroarylbenzimidazole compounds” (BAYER PHARMA AKTIENGESELLSCHAFT, priority 2015, dated 2021)

Molecular target: TBK1 (Homo sapiens (Human), UniProt Q9UHD2)
Assay: TBK1 low ATP kinase assay (in vitro assay 1)
Assay type: biochemical
Conditions: in vitro assay 1, read-out: TBK1 low ATP kinase assay IC50

Chain of TBK1 (Q9UHD2 whole entry): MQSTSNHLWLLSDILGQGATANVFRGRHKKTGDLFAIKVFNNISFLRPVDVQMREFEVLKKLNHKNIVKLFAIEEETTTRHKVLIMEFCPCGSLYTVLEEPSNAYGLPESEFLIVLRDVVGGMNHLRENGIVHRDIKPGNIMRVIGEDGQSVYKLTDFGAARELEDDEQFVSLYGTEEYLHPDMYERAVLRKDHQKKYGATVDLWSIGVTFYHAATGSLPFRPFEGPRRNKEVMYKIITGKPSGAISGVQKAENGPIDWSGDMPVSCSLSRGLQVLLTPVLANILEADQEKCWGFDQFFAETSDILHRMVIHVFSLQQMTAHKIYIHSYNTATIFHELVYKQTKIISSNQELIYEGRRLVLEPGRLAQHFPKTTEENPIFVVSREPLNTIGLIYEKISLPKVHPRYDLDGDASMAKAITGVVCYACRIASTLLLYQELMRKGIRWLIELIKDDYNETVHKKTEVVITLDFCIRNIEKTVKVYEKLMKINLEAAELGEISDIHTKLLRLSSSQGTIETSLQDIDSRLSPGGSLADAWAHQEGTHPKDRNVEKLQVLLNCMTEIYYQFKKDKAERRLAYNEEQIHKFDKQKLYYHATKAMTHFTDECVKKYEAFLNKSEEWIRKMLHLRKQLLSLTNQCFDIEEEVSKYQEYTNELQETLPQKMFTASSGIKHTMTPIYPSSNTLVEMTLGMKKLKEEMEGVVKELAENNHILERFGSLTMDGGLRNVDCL

IC50 [µM]	SMILES
0.00861	CC(c1ccnc(Nc2nc3ccc(-c4cnn(CC5CC5)c4)cc3[nH]2)c1)N1CCN(C(=O)OC(C)(C)C)CC1 (single isomer, unassigned) [Example 39.02.01, tert-butyl 4-{(1R or 1S)-1-[2-({6-[1-(cyclopropylmethyl)-1H-pyrazol-4-yl]-1H-benzimidazol-2-yl}amino)pyridin-4-yl]ethyl}piperazine-1-carboxylate]
0.0668	O=C(C1CC1)N1CCN(Cc2ccnc(Nc3nc4ccc(-c5ccn(CC6CC6)c(=O)c5)cc4[nH]3)c2)CC1 [Example 44.02, 4-{2-[(4-{[4-(cyclopropylcarbonyl)piperazin-1-yl]methyl}pyridin-2-yl)amino]-1H-benzimidazol-6-yl}-1-(cyclopropylmethyl)pyridin-2(1H)-one]
0.0016	CC(c1ccnc(Nc2nc3ccc(-c4cnn(CC5CC5)c4)c(F)c3[nH]2)c1)N1CCN(C(=O)C2CC2)CC1 (single isomer, unassigned) [Example 121.03, cyclopropyl(4-{(1R or 1S)-1-[2-({6-[1-(cyclopropylmethyl)-1H-pyrazol-4-yl]-7-fluoro-1H-benzimidazol-2-yl}amino)pyridin-4-yl]ethyl}piperazin-1-yl)methanone]
0.00833	COc1cncnc1-c1ccc2nc(Nc3cc(C(C)N4CCN(C(=O)CC5CC5)CC4)ccn3)[nH]c2c1 (single isomer, unassigned) [Example 35.03.02.A, 2-cyclopropyl-1-{4-[(1R or 1S)-1-(2-{[6-(5-methoxypyrimidin-4-yl)-1H-benzimidazol-2-yl]amino}pyridin-4-yl)ethyl]piperazin-1-yl}ethanone]
0.033	Cc1nnc(-c2ccc3nc(Nc4cc(CN5CCN(C(=O)C6CC6)CC5)ccn4)[nH]c3c2)o1 [Example 66.01.02, cyclopropyl{4-[(2-{[6-(5-methyl-1,3,4-oxadiazol-2-yl)-1H-benzimidazol-2-yl]amino}pyridin-4-yl)methyl]piperazin-1-yl}methanone]
0.0565	O=C(CC1CC1)N1CCN(Cc2ccnc(Nc3nc4ccc(-c5nc(C6CC6)no5)cc4[nH]3)c2)CC1 [Example 17.03, 2-cyclopropyl-1-{4-[(2-{[6-(3-cyclopropyl-1,2,4-oxadiazol-5-yl)-1H-benzimidazol-2-yl]amino}pyridin-4-yl)methyl]piperazin-1-yl}ethanone]
0.31	Cc1noc(-c2ccc3nc(Nc4cc(CN5CCN(C(=O)c6cccnc6)CC5)ccn4)[nH]c3c2)n1 [Example 101.26, {4-[(2-{[6-(3-methyl-1,2,4-oxadiazol-5-yl)-1H-benzimidazol-2-yl]amino}pyridin-4-yl)methyl]piperazin-1-yl}(pyridin-3-yl)methanone]
0.0141	CCOc1nccc(-c2ccc3nc(Nc4cc(CN5CCN(C(=O)CC6CC6)CC5)ccn4)[nH]c3c2)n1 [Example 26.01.05, 2-cyclopropyl-1-{4-[(2-{[6-(2-ethoxypyrimidin-4-yl)-1H-benzimidazol-2-yl]amino}pyridin-4-yl)methyl]piperazin-1-yl}ethanone]
0.0013	CC(c1ccnc(Nc2nc3ccc(-c4cc(N5CC(F)(F)C5)ncn4)cc3[nH]2)c1)N1CCN(C(=O)CC(F)(F)F)CC1 (single isomer, unassigned) [Example 116.03, 1-(4-{(1R or 1S)-1-[2-({6-[6-(3,3-difluoroazetidin-1-yl)pyrimidin-4-yl]-1H-benzimidazol-2-yl}amino)pyridin-4-yl]ethyl}piperazin-1-yl)-3,3,3-trifluoropropan-1-one]
0.1	CC(c1ccnc(Nc2nc3ccc(-c4cnn(CC5CCCC5)c4)cc3[nH]2)c1)N1CCN(C(=O)OC(C)(C)C)CC1 (single isomer, unassigned) [Example 71.01, tert-butyl 4-{(1R or 1S)-1-[2-({6-[1-(cyclopentylmethyl)-1H-pyrazol-4-yl]-1H-benzimidazol-2-yl}amino)pyridin-4-yl]ethyl}piperazine-1-carboxylate]
0.14	Cc1cc(-c2ccc3nc(Nc4cc(CN5CCN(C(=O)OC(C)(C)C)CC5)ccn4)[nH]c3c2)c(F)cn1 [Example 131.01, tert-butyl 4-[(2-{[6-(5-fluoro-2-methylpyridin-4-yl)-1H-benzimidazol-2-yl]amino}pyridin-4-yl)methyl]piperazine-1-carboxylate]
0.036	CC(c1ccnc(Nc2nc3ccc(-c4ccnn4C)cc3[nH]2)c1)N1CCN(C(=O)OC(C)(C)C)CC1 (single isomer, unassigned) [Example 123.01, tert-butyl 4-[(1R or 1S)-1-(2-{[6-(1-methyl-1H-pyrazol-5-yl)-1H-benzimidazol-2-yl]amino}pyridin-4-yl)ethyl]piperazine-1-carboxylate]
3.58	COc1cc(-c2ccc3nc(Nc4cc(CN5CCN(C(=O)CC(F)(F)F)CC5)ccn4)[nH]c3c2)nc(C)n1 [Example 176.02, 3,3,3-trifluoro-1-{4-[(2-{[6-(6-methoxy-2-methylpyrimidin-4-yl)-1H-benzimidazol-2-yl]amino}pyridin-4-yl)methyl]piperazin-1-yl}propan-1-one]
0.0072	O=C(CC(F)(F)F)N1CCN(Cc2ccnc(Nc3nc4ccc(-c5cc(N6CCOCC6)ncn5)cc4[nH]3)c2)CC1 [Example 94.01, 3,3,3-trifluoro-1-(4-{[2-({6-[6-(morpholin-4-yl)pyrimidin-4-yl]-1H-benzimidazol-2-yl}amino)pyridin-4-yl]methyl}piperazin-1-yl)propan-1-one]
0.69	Cc1cccc(N2CCN(Cc3ccnc(Nc4nc5ccc(-c6nc(C)no6)cc5[nH]4)c3)CC2)c1 [Example 101.03, 6-(3-methyl-1,2,4-oxadiazol-5-yl)-N-(4-{[4-(3-methylphenyl)piperazin-1-yl]methyl}pyridin-2-yl)-1H-benzimidazol-2-amine]
0.053	Cc1cc(-c2ccc3nc(Nc4cc(CN5CCN(C(=O)OC(C)(C)C)CC5)ccn4)[nH]c3c2)cc(C#N)n1 [Example 136.01, tert-butyl 4-[(2-{[6-(2-cyano-6-methylpyridin-4-yl)-1H-benzimidazol-2-yl]amino}pyridin-4-yl)methyl]piperazine-1-carboxylate]
0.45	Cc1noc(-c2ccc3nc(Nc4cc(CN5CCN(c6cncc(Cl)n6)CC5)ccn4)[nH]c3c2)n1 [Example 101.29, N-(4-{[4-(6-chloropyrazin-2-yl)piperazin-1-yl]methyl}pyridin-2-yl)-6-(3-methyl-1,2,4-oxadiazol-5-yl)-1H-benzimidazol-2-amine]
0.396	CC(c1ccnc(Nc2nc3ccc(-c4cc(C(F)(F)F)ncn4)c(F)c3[nH]2)c1)N1CCN(C(=O)OC(C)(C)C)CC1 (single isomer, unassigned) [Example 173.01, tert-butyl 4-{(1R or 1S)-1-[2-({7-fluoro-6-[6-(trifluoromethyl)pyrimidin-4-yl]-1H-benzimidazol-2-yl}amino)pyridin-4-yl]ethyl}piperazine-1-carboxylate]
0.224	COc1cnc(C)cc1-c1ccc2nc(Nc3cc(CN4CCN(C(=O)C5CC5)CC4)ccn3)[nH]c2c1 [Example 07.01, cyclopropyl{4-[(2-{[6-(5-methoxy-2-methylpyridin-4-yl)-1H-benzimidazol-2-yl]amino}pyridin-4-yl)methyl]piperazin-1-yl}methanone]
0.0092	N#Cc1cc(-c2ccc3nc(Nc4cc(CN5CCN(C(=O)CC(F)(F)F)CC5)ccn4)[nH]c3c2)ncn1 [Example 77.01, 6-{2-[(4-{[4-(3,3,3-trifluoropropanoyl)piperazin-1-yl]methyl}pyridin-2-yl)amino]-1H-benzimidazol-6-yl}pyrimidine-4-carbonitrile]
0.251	CCOc1cnc(C)cc1-c1ccc2nc(Nc3cc(CN4CCN(C(=O)CC(F)(F)F)CC4)ccn3)[nH]c2c1 [Example 09.01, 1-{4-[(2-{[6-(5-ethoxy-2-methylpyridin-4-yl)-1H-benzimidazol-2-yl]amino}pyridin-4-yl)methyl]piperazin-1-yl}-3,3,3-trifluoropropan-1-one]
0.014	CN(CC(F)(F)F)c1cc(-c2ccc3nc(Nc4cc(CN5CCN(C(=O)OC(C)(C)C)CC5)ccn4)[nH]c3c2)ncn1 [Example 146.01, tert-butyl 4-({2-[(6-{6-[methyl(2,2,2-trifluoroethyl)amino]pyrimidin-4-yl}-1H-benzimidazol-2-yl)amino]pyridin-4-yl}methyl)piperazine-1-carboxylate]
0.89	Cc1cc(-c2ccc3nc(Nc4cc(CN5CCN(C(=O)OC(C)(C)C)CC5)ccn4)[nH]c3c2)nc(N(C)C)n1 [Example 178.01, tert-butyl 4-{[2-({6-[2-(dimethylamino)-6-methylpyrimidin-4-yl]-1H-benzimidazol-2-yl}amino)pyridin-4-yl]methyl}piperazine-1-carboxylate]
0.0398	Cc1cc(-c2ccc3nc(Nc4cc(C(C)N5CCN(C(=O)OC(C)(C)C)CC5)ccn4)[nH]c3c2F)ncn1 (single isomer, unassigned) [Example 172.01, tert-butyl 4-[(1R or 1S)-1-(2-{[7-fluoro-6-(6-methylpyrimidin-4-yl)-1H-benzimidazol-2-yl]amino}pyridin-4-yl)ethyl]piperazine-1-carboxylate]
0.0522	O=C(CC(F)(F)F)N1CCN(Cc2ccnc(Nc3nc4ccc(-c5ccncc5OCC(F)(F)F)cc4[nH]3)c2)CC1 [Example 05.01, 3,3,3-trifluoro-1-(4-{[2-({6-[3-(2,2,2-trifluoroethoxy)pyridin-4-yl]-1H-benzimidazol-2-yl}amino)pyridin-4-yl]methyl}piperazin-1-yl)propan-1-one]
0.0771	CC(c1ccnc(Nc2nc3ccc(-c4cc(C(F)(F)F)ncn4)c(F)c3[nH]2)c1)N1CCN(C(=O)CC(F)(F)F)CC1 (single isomer, unassigned) [Example 173.02, 3,3,3-trifluoro-1-(4-{(1R or 1S)-1-[2-({7-fluoro-6-[6-(trifluoromethyl)pyrimidin-4-yl]-1H-benzimidazol-2-yl}amino)pyridin-4-yl]ethyl}piperazin-1-yl)propan-1-one]

SMILES	IC50 [µM]
CCn1cc(-c2ccc3nc(Nc4cc(CN5CCN(C(=O)CC(F)(F)F)CC5)ccn4)[nH]c3c2)cn1 [Example 38.02, 1-{4-[(2-{[6-(1-ethyl-1H-pyrazol-4-yl)-1H-benzimidazol-2-yl]amino}pyridin-4-yl)methyl]piperazin-1-yl}-3,3,3-trifluoropropan-1-one]	0.0504
